Experimental data from ChEMBL document CHEMBL2417425, “Design and synthesis of positional isomers of 5 and 6-bromo-1-[(phenyl)sulfonyl]-2-[(4-nitrophenoxy)methyl]-1H-benzimidazoles as possible antimicrobial and antitubercular agents” (2013).
In brackets after ≈: the same amount, converted by molar mass.

Test system: Mycobacterium tuberculosis
Assay: Antimycobacterial activity against multidrug-resistant Mycobacterium tuberculosis assessed as growth inhibition at 0.3125 to 5 ug/mL by resazurin assay
Type: functional

Structure (SMILES) | MIC [µg/mL]
N#Cc1cccc(S(=O)(=O)n2c(COc3ccc([N+](=O)[O-])cc3)nc3ccc(Br)cc32)c1 | > 50
COc1ccc(S(=O)(=O)n2c(COc3ccc([N+](=O)[O-])cc3)nc3cc(Br)ccc32)c(OC)c1 | > 50
COc1ccc(OC)c(S(=O)(=O)n2c(COc3ccc([N+](=O)[O-])cc3)nc3ccc(Br)cc32)c1 | 25 (≈ 45.6 µM)
O=[N+]([O-])c1ccc(OCc2nc3cc(Br)ccc3n2S(=O)(=O)c2cc(Cl)ccc2Cl)cc1 | > 50
Nc1ccc(OCc2nc3cc(Br)ccc3[nH]2)cc1 | 25 (≈ 78.6 µM)
NNC(=O)c1ccncc1 [ISONIAZID] | 12.5 (≈ 91.1 µM)
CO[C@H]1/C=C/O[C@@]2(C)Oc3c(C)c(O)c4c(O)c(c(/C=N/N5CCN(C)CC5)c(O)c4c3C2=O)NC(=O)/C(C)=C\C=C\[C@H](C)[C@H](O)[C@@H](C)[C@@H](O)[C@@H](C)[C@H](OC(C)=O)[C@@H]1C [RIFAMPIN] | 25 (≈ 30.4 µM)
Cc1cccc(S(=O)(=O)n2c(COc3ccc([N+](=O)[O-])cc3)nc3ccc(Br)cc32)c1 | > 50
O=[N+]([O-])c1ccc(OCc2nc3cc(Br)ccc3n2S(=O)(=O)c2ccccc2Cl)cc1 | 6.25 (≈ 12 µM)
Cc1c(F)cccc1S(=O)(=O)n1c(COc2ccc([N+](=O)[O-])cc2)nc2cc(Br)ccc21 | > 50
O=[N+]([O-])c1ccc(OCc2nc3cc(Br)ccc3n2S(=O)(=O)c2cc(F)ccc2F)cc1 | 6.25 (≈ 11.9 µM)
COc1ccc(S(=O)(=O)n2c(COc3ccc([N+](=O)[O-])cc3)nc3ccc(Br)cc32)c(OC)c1 | 2.5 (≈ 4.56 µM)
O=[N+]([O-])c1ccc(OCc2nc3cc(Br)ccc3n2S(=O)(=O)c2ccccc2[N+](=O)[O-])cc1 | 6.25 (≈ 11.7 µM)
Cc1cccc(S(=O)(=O)n2c(COc3ccc([N+](=O)[O-])cc3)nc3cc(Br)ccc32)c1 | > 50
Cc1c(F)cccc1S(=O)(=O)n1c(COc2ccc([N+](=O)[O-])cc2)nc2ccc(Br)cc21 | > 50
O=[N+]([O-])c1ccc(OCc2nc3ccc(Br)cc3n2S(=O)(=O)c2ccccc2[N+](=O)[O-])cc1 | > 50
O=[N+]([O-])c1ccc(OCc2nc3ccc(Br)cc3n2S(=O)(=O)c2cc(F)ccc2F)cc1 | > 50
COc1ccc(OC)c(S(=O)(=O)n2c(COc3ccc([N+](=O)[O-])cc3)nc3cc(Br)ccc32)c1 | > 50
N#Cc1cccc(S(=O)(=O)n2c(COc3ccc([N+](=O)[O-])cc3)nc3cc(Br)ccc32)c1 | > 50
O=[N+]([O-])c1ccc(OCc2nc3cc(Br)ccc3n2S(=O)(=O)c2ccc(Cl)cc2Cl)cc1 | > 50
O=[N+]([O-])c1ccc(OCc2nc3ccc(Br)cc3n2S(=O)(=O)c2cc(Cl)ccc2Cl)cc1 | > 50
